Results as given in article PMC10709440, “High-throughput ligand profile characterization in novel cell lines expressing seven heterologous insect olfactory receptors for the detection of volatile plant biomarkers” (Scientific Reports, 2023).
Where two headings read alike, the source gives them in different places.

Experiments:
Drosophila OR13a = target: T1, Drosophila OR13a (Drosophila melanogaster, UniProt Q9VXL0); test: Calcium ion fluorescence (GCaMP6) assay, OR13a stable HEK293 cell line; format: cell-based; settings: for OR13a response (VUAA1-normalized) at 1 μM / OR13a response (VUAA1-normalized) at 10 μM / OR13a response (VUAA1-normalized) at 100 μM: OR13a cell line
T1 construct: expressed in transfected cells
T1 sequence (Q9VXL0 1-418): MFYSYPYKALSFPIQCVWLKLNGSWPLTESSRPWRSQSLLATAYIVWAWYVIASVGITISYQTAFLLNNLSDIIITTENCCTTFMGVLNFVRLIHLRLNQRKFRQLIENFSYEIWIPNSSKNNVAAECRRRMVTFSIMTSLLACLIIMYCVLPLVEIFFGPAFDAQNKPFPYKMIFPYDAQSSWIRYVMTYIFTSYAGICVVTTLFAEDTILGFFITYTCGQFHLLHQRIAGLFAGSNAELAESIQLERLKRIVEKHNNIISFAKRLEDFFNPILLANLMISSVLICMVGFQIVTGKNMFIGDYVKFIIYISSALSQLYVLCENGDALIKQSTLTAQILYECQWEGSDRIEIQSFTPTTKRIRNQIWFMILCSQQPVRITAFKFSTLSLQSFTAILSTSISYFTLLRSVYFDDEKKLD
T1 sequence (Q9VNB5 1-486 partner): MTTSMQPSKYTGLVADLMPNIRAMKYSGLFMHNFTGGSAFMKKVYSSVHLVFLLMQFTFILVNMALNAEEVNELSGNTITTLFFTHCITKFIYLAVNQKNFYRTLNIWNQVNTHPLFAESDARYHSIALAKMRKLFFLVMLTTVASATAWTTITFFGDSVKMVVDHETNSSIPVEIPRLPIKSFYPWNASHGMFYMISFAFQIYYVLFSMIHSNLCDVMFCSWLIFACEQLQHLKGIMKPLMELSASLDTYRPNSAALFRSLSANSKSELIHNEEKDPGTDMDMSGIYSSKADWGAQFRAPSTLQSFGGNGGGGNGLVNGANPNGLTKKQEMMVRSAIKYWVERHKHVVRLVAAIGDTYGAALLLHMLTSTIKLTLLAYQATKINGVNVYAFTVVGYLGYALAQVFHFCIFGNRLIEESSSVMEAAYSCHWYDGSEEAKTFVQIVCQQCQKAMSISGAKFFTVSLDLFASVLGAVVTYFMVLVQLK
Procedure, shortened: (§1)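 Responses are VUAA1-normalized ΔF: each VOC-evoked calcium signal, (FMAX−F0)/F0 over 30 s after injection, divided by the same line's mean 50 µM VUAA1 response. Cells were doxycycline-induced HEK293 with GCaMP6 and the cognate Drosophila OR, in HEPES buffer pH 7.3; ligands tested 0.01–100 μM.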

Drosophila OR10a = target: T2, Drosophila OR10a (Drosophila melanogaster, UniProt Q9VYZ1); test: Calcium ion fluorescence (GCaMP6) assay, OR10a stable HEK293 cell line; format: cell-based; settings: for OR10a response (VUAA1-normalized) at 1 μM / OR10a response (VUAA1-normalized) at 10 μM / OR10a response (VUAA1-normalized) at 100 μM: OR10a cell line
T2 construct: expressed in transfected cells
T2 sequence (Q9VYZ1 1-406): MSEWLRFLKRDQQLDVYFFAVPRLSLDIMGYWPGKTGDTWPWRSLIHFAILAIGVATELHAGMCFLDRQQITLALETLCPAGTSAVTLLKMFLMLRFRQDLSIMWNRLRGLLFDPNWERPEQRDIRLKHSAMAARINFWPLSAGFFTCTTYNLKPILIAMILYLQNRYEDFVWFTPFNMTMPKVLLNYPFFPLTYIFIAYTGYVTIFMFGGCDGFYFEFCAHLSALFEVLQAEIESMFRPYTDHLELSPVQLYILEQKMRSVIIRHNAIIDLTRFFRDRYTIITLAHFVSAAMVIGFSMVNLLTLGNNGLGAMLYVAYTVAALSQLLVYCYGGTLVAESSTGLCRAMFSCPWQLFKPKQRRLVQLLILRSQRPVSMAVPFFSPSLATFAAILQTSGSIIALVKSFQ
T2 sequence (Q9VNB5 1-486 partner): T1 sequence (Q9VNB5 1-486 partner)
Procedure, shortened: as §1

[1] = HEK293, read-out: OR13a Average response (VUAA1-normalized), 1 μM VOC, 50 μM VUAA1 = 1, responses not exceeding 0.05 considered 0
[2] = HEK293, read-out: OR13a Average response (VUAA1-normalized), 10 μM VOC, 50 μM VUAA1 = 1, responses not exceeding 0.05 considered 0
[3] = HEK293, read-out: OR13a Average response (VUAA1-normalized), 100 μM VOC, 50 μM VUAA1 = 1, responses not exceeding 0.05 considered 0
[4] = HEK293, read-out: OR13a response (VUAA1-normalized response), VOC concentration 1 μM
[5] = HEK293, read-out: OR13a response (VUAA1-normalized response), VOC concentration 10 μM
[6] = HEK293, read-out: OR13a response (VUAA1-normalized response), VOC concentration 100 μM
[7] = concentration 1, normalized fluorescence change, values below 0.05 threshold given as 0
[8] = concentration 10, normalized fluorescence change, values below 0.05 threshold given as 0
[9] = concentration 100, normalized fluorescence change, values below 0.05 threshold given as 0
[10] = HEK293, read-out: OR10a response (VUAA1-normalized response), VOC concentration 1 μM
[11] = HEK293, read-out: OR10a response (VUAA1-normalized response), VOC concentration 10 μM
[12] = HEK293, read-out: OR10a response (VUAA1-normalized response), VOC concentration 100 μM
[13] = 1 μM VOC, 50 μM VUAA1 = 1, responses not exceeding 0.05 considered 0
[14] = 10 μM VOC, 50 μM VUAA1 = 1, responses not exceeding 0.05 considered 0
[15] = 100 μM VOC, 50 μM VUAA1 = 1, responses not exceeding 0.05 considered 0

SMILES	DF norm AVERAGE OR13a (Drosophila OR13a; [7])	DF norm AVERAGE OR13a (Drosophila OR13a; [8])	DF norm AVERAGE OR13a (Drosophila OR13a; [9])	OR13a Average response (VUAA1-normalized) (Drosophila OR13a; [13])	OR13a Average response (VUAA1-normalized) (Drosophila OR13a; [14])	OR13a Average response (VUAA1-normalized) (Drosophila OR13a; [15])	OR13a response (VUAA1-normalized response) (Drosophila OR13a; VOC concentration 1 μM)	OR13a response (VUAA1-normalized response) (Drosophila OR13a; VOC concentration 10 μM)	OR13a response (VUAA1-normalized response) (Drosophila OR13a; VOC concentration 100 μM)	OR10a Average response (VUAA1-normalized) (Drosophila OR10a; [13])	OR10a Average response (VUAA1-normalized) (Drosophila OR10a; [14])	OR10a Average response (VUAA1-normalized) (Drosophila OR10a; [15])	OR10a response (VUAA1-normalized response) (Drosophila OR10a; VOC concentration 1 μM)	OR10a response (VUAA1-normalized response) (Drosophila OR10a; VOC concentration 10 μM)	OR10a response (VUAA1-normalized response) (Drosophila OR10a; VOC concentration 100 μM)	other results
C=C1CC[C@H]2O[C@]2(C)CC[C@@H]2[C@@H]1CC2(C)C [(-)-caryophyllene oxide]	0	0	0													activation at 1 µM (Drosophila OR13a; [1]): 0%; activation at 10 µM (Drosophila OR13a; [2]): 0%; activation at 100 µM (Drosophila OR13a; [3]): 0%; activation at 1 µM (Drosophila OR13a; [4]): 0%; activation at 10 µM (Drosophila OR13a; [5]): 0%; activation at 100 µM (Drosophila OR13a; [6]): 0%; activation at 1 µM (Drosophila OR10a; HEK293, read-out: OR10a Average response (VUAA1-normalized), 1 μM VOC, 50 μM VUAA1 = 1, responses not exceeding 0.05 considered 0): 0%; activation at 10 µM (Drosophila OR10a; HEK293, read-out: OR10a Average response (VUAA1-normalized), 10 μM VOC, 50 μM VUAA1 = 1, responses not exceeding 0.05 considered 0): 0%; activation at 100 µM (Drosophila OR10a; HEK293, read-out: OR10a Average response (VUAA1-normalized), 100 μM VOC, 50 μM VUAA1 = 1, responses not exceeding 0.05 considered 0): 0%; activation at 1 µM (Drosophila OR10a; [10]): 0%; activation at 10 µM (Drosophila OR10a; [11]): 0%; activation at 100 µM (Drosophila OR10a; [12]): 0%; DF norm AVERAGE OR10a (Drosophila OR10a; [7]): 0; DF norm AVERAGE OR10a (Drosophila OR10a; [8]): 0; DF norm AVERAGE OR10a (Drosophila OR10a; [9]): 0
C=C1CC/C=C(\C)CC[C@@H]2[C@@H]1CC2(C)C [(-)-trans-caryophyllene]	0	0.1145	0.105													activation at 1 µM (Drosophila OR13a; [1]): 0%; activation at 10 µM (Drosophila OR13a; [2]): 11%; activation at 100 µM (Drosophila OR13a; [3]): 10%; activation at 1 µM (Drosophila OR13a; [4]): 0%; activation at 10 µM (Drosophila OR13a; [5]): 11%; activation at 100 µM (Drosophila OR13a; [6]): 10%; activation at 1 µM (Drosophila OR10a; HEK293, 1 μM VOC, 50 μM VUAA1 = 1, responses not exceeding 0.05 considered 0, read-out: OR10a Average response (VUAA1-normalized)): 14%; activation at 10 µM (Drosophila OR10a; HEK293, 10 μM VOC, 50 μM VUAA1 = 1, responses not exceeding 0.05 considered 0, read-out: OR10a Average response (VUAA1-normalized)): 20%; activation at 100 µM (Drosophila OR10a; HEK293, 100 μM VOC, 50 μM VUAA1 = 1, responses not exceeding 0.05 considered 0, read-out: OR10a Average response (VUAA1-normalized)): 6.61%; activation at 1 µM (Drosophila OR10a; [10]): 14%; activation at 10 µM (Drosophila OR10a; [11]): 20%; activation at 100 µM (Drosophila OR10a; [12]): 6.61%
C=C(C)[C@H]1CC=C(C)CC1 [(R)-(+)-limonene]	0	0	0	0.00	0.0429	0.0285	0.00	0.00	0.00	0.00	0.12	0.0152	0.00	0.12	0.00	
CC1=CCC[C@@]2(C)[C@@H]3CC[C@]12CC3(C)C [(−)-α-neoclovene]	0	0	0	0.0436	0.00	0.00	0.00	0.00	0.00	0.00	0.13	0.12	0.00	0.13	0.12	
CC/C=C\CCO [E-3-hexenol]							0.00	0.00	0.07				0.00	0.00	0.074	
CC/C=C\CCO [Z3-hexenol]				0.04	0.06	0.00				0.17	0.19	0.10				DF norm AVERAGE OR13a (Drosophila OR13a; ligand concentration 1 (unit not given), 0.05 threshold, values below shown as 0): 0; DF norm AVERAGE OR13a (Drosophila OR13a; ligand concentration 10 (unit not given), 0.05 threshold, values below shown as 0): 0.05798; DF norm AVERAGE OR13a (Drosophila OR13a; ligand concentration 100 (unit not given), 0.05 threshold, values below shown as 0): 0; DF norm AVERAGE OR10a (Drosophila OR10a; ligand concentration 1 (unit not given), […]): 0.1736; DF norm AVERAGE OR10a (Drosophila OR10a; ligand concentration 10 (unit not given), […]): 0.1946; DF norm AVERAGE OR10a (Drosophila OR10a; ligand concentration 100 (unit not given), […]): 0.1046
CC/C=C\CCO [Z-3-hexenol]																OR13a response (VUAA1-normalized) at 1 μM (Drosophila OR13a; VOC concentration 1 μM): 0.00; OR13a response (VUAA1-normalized) at 10 μM (Drosophila OR13a; VOC concentration 10 μM): 0.06; OR13a response (VUAA1-normalized) at 100 μM (Drosophila OR13a; VOC concentration 100 μM): 0.00; OR10a response (VUAA1-normalized) at 1 μM (Drosophila OR10a; VOC concentration 1 μM): 0.17; OR10a response (VUAA1-normalized) at 10 μM (Drosophila OR10a; VOC concentration 10 μM): 0.19; OR10a response (VUAA1-normalized) at 100 μM (Drosophila OR10a; VOC concentration 100 μM): 0.10
CC/C=C\CCOC(C)=O [Z-3-hexenyl acetate]																OR13a response (VUAA1-normalized) at 1 μM (Drosophila OR13a; VOC concentration 1 μM): 0.00; OR13a response (VUAA1-normalized) at 10 μM (Drosophila OR13a; VOC concentration 10 μM): 0.00; OR13a response (VUAA1-normalized) at 100 μM (Drosophila OR13a; VOC concentration 100 μM): 0.09; OR10a response (VUAA1-normalized) at 1 μM (Drosophila OR10a; VOC concentration 1 μM): 0.14; OR10a response (VUAA1-normalized) at 10 μM (Drosophila OR10a; VOC concentration 10 μM): 0.00; OR10a response (VUAA1-normalized) at 100 μM (Drosophila OR10a; VOC concentration 100 μM): 0.00
